Measured values from publication PMC8514580, “Insight into the interaction between the RNA helicase CGH-1 and EDC-3 and its implications” (Scientific Reports, 2021).
Residue numbers refer to the chain shown, from its start. No end group written: not given here.

T1: CGH-1_248-420^WT (Caenorhabditis elegans, UniProt Q95YF3)
T1 construct: the cDNA fragments encoding CGH-1 RecA2 (residues 248–420); made in house; host or cells: E. coli Gold (DE3)
T1 sequence (Q95YF3 248-420): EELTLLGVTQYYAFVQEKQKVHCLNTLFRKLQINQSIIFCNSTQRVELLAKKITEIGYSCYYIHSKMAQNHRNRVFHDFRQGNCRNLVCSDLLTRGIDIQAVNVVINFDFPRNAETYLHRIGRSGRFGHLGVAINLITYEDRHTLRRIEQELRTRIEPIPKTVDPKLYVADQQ

T2: CGH-1_248-420^4A (Caenorhabditis elegans, UniProt Q95YF3, C270A/H269A/L274A/T273A)
T2 construct: the cDNA fragments encoding CGH-1 RecA2 (residues 248–420); made in house; host or cells: E. coli Gold (DE3)
T2 sequence (Q95YF3 248-420 H269A/C270A/T273A/L274A limits assumed): T1 sequence (Q95YF3 248-420) with H22A, C23A, T26A, L27A

B1: CAR-1_184–268: recombinant CAR-1 FDF-TFG (residues 184–268) (protein)
chain: LKFESDFDFEKANEKFQEVLVDNLEKLNIEDKAEPEVEEKKDAAFYDKKTSFFDNISCESLEKAEGKTGRPDWKKERETNQETFG
modifications: left off: His tag (from the modified vector pET-28a), end not stated, state not stated

What was measured:
CGH-1_248-420^WT = biological target: T1, CGH-1_248-420^WT; assay: ITC binding to CGH-1_248–420 WT; parameters: species or system C. elegans; settings: for − TΔS: 20 °C, pH 7.5, 150 mM NaCl
Method: (§1) Expression plasmids regarding CGH-1 and CAR-1 were constructed as previously described. In brief, the cDNA fragments encoding CGH-1 RecA2 (residues 248–420), CAR-1 FDF-TFG (residues 184–268) were amplified by PCR from C. elegans genome library and cloned into the NdeI and XhoI site of a modified pET-28a (Novagen) vector (p28a), in which a thrombin protease cleavage site was removed.
(§2) CGH-1 protein expression and purification were performed described as in our most recent paper. In brief, proteins were expressed in E. coli Gold (DE3) strain (Novagen). […] Cells were resuspended in Buffer A (20 mM Tris–HCl, pH 7.5, 1 M NaCl), and then lysed using high pressure at 4 °C. Proteins were initially purified by Ni-chelating resin (Qiagen), and further purified by size exclusion chromatography (SEC) on a Superdex 75 column (GE healthcare) in Buffer A. The purified proteins were dialyzed into Buffer B (20 mM Tris–HCl, pH 7.5, 150 mM NaCl).
(§3) A peptide containing the C. elegans EDC-3 FDF fragment (residues 235–271) and PATR-1 fragment (residues 30–67) were synthesized from GL Biochem (Shanghai, China) Co., Ltd, respectively. Stock solutions of peptide were prepared in Buffer B described above, and were adjusted to pH 7.5 ± 0.02 for subsequent experiments.
(§4) ITC assays were performed as previously described. In brief, it was carried out on a MicroCal PEAQ-ITC (Malvern) at 20 °C with the following settings: reference power, 5 μcal/s; initial delay, 60 s; stir speed, 750 rpm; spacing time, 120 s. Proteins (or its mutants) and peptides were adjusted to 0.05 mM and 0.5 mM, respectively. Experiments were initialed by injection of 1 μl each of peptide into the sample cell (200 μl) filled with protein (or its mutants) solution, followed by 18 injections of 2 μl. The ITC data were fitted with a one-binding-site model using the Origin analysis software.

CGH-1_248-420^Q266A = biological target: T3, CGH-1_248-420^Q266A (Caenorhabditis elegans, UniProt Q95YF3, Q266A); assay: ITC binding to CGH-1_248–420 Q266A; parameters: species or system C. elegans; settings: 20 °C, pH 7.5, 150 mM NaCl, CGH-1 Q266A
T3 construct: the cDNA fragments encoding CGH-1 RecA2 (residues 248–420); made in house; host or cells: E. coli Gold (DE3)
T3 sequence (Q95YF3 248-420 Q266A): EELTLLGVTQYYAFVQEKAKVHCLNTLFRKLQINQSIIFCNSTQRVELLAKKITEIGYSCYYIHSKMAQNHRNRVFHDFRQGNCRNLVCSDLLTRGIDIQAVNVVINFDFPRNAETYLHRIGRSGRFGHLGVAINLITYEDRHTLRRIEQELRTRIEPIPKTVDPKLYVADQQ
Method: as §1, §2, §3
(§5) ITC assays were performed as previously described. […]

CGH-1_248-420^H269A = biological target: T4, CGH-1_248-420^H269A (Caenorhabditis elegans, UniProt Q95YF3, H269A); assay: ITC binding to CGH-1_248–420 H269A; parameters: species or system C. elegans; settings: 20 °C, pH 7.5, 150 mM NaCl, CGH-1 H269A
T4 construct: the cDNA fragments encoding CGH-1 RecA2 (residues 248–420); made in house; host or cells: E. coli Gold (DE3)
T4 sequence (Q95YF3 248-420 H269A): as the sequence (Q95YF3 248-420 Q266A) above, with A19Q, H22A counted along it
Method: as §1, §2, §3, §5

CGH-1_248-420^F261A = biological target: T5, CGH-1_248-420^F261A (Caenorhabditis elegans, UniProt Q95YF3, F261A); assay type: binding, C. elegans; settings: ITC, 20 °C, pH 7.5, 150 mM NaCl; CGH-1 F261A
T5 construct: the cDNA fragments encoding CGH-1 RecA2 (residues 248–420); made in house; host or cells: E. coli Gold (DE3)
T5 sequence (Q95YF3 248-420 F261A): as the sequence (Q95YF3 248-420 Q266A) above, with F14A, A19Q counted along it
Method: as §1, §2, §3, §4

CGH-1_248-420^K277A = biological target: T6, CGH-1_248-420^K277A (Caenorhabditis elegans, UniProt Q95YF3, K277A); assay type: binding, C. elegans; settings: ITC, 20 °C
T6 construct: the cDNA fragments encoding CGH-1 RecA2 (residues 248–420); made in house; host or cells: E. coli Gold (DE3)
T6 sequence (Q95YF3 248-420 K277A): as the sequence (Q95YF3 248-420 Q266A) above, with A19Q, K30A counted along it
Method: as §1, §2, §3, §4

CGH-1_248-420^R393A = biological target: T7, CGH-1_248-420^R393A (Caenorhabditis elegans, UniProt Q95YF3, R393A); assay type: binding, C. elegans; settings: ITC, 20 °C
T7 construct: the cDNA fragments encoding CGH-1 RecA2 (residues 248–420); made in house; host or cells: E. coli Gold (DE3)
T7 sequence (Q95YF3 248-420 R393A): as the sequence (Q95YF3 248-420 Q266A) above, with A19Q, R146A counted along it
Method: as §1, §2, §3, §4

CGH-1_248-420^K277E = biological target: T8, CGH-1_248-420^K277E (Caenorhabditis elegans, UniProt Q95YF3, K277E); assay: ITC binding to CGH-1_248–420 K277E; parameters: species or system C. elegans; settings: 20 °C
T8 construct: the cDNA fragments encoding CGH-1 RecA2 (residues 248–420); made in house; host or cells: E. coli Gold (DE3)
T8 sequence (Q95YF3 248-420 K277E): as the sequence (Q95YF3 248-420 Q266A) above, with A19Q, K30E counted along it
Method: as §1, §2, §3, §5

CGH-1_248-420^E396A = biological target: T9, CGH-1_248-420^E396A (Caenorhabditis elegans, UniProt Q95YF3, E396A); assay: ITC binding to CGH-1_248–420 E396A; parameters: species or system C. elegans; settings: 20 °C
T9 construct: the cDNA fragments encoding CGH-1 RecA2 (residues 248–420); made in house; host or cells: E. coli Gold (DE3)
T9 sequence (Q95YF3 248-420 E396A): as the sequence (Q95YF3 248-420 Q266A) above, with A19Q, E149A counted along it
Method: as §1, §2, §3, §5

CGH-1_248-420^4A = biological target: T2, CGH-1_248-420^4A; assay: ITC binding to CGH-1_248–420 4A (H269A, C270A, T273A, L274A); parameters: species or system C. elegans; settings: CGH-1 4A vs WT
Method: as §1, §2, §3, §4

CGH-1_248–420 mutants = assay: ITC binding to several CGH-1_248–420 single mutants; parameters: species or system C. elegans; settings: substitution of each of Phe261, Gln266, His269 with Ala
Method: as §1, §2, §3, §5

[1] = test system: CGH-1_248–420 binding to GST-EDC-3_230–566; assay: GST-pulldown competition, CGH-1_248–420 binding to GST-EDC-3_230–566; parameters: species or system C. elegans; settings: PBS, 2 h, same amount of CAR-1_184–268 and CGH-1_248–420 (50 μg)
Method: To investigate whether CAR-1_184–268 can affect CGH-1_248–420 binding to EDC-3_230–566, approximate 100 μg GST-tagged EDC-3_230–566 was incubated with GST resin, followed by three times of wash in PBS. The resin was then incubated with 50 μg CGH-1_248–420 in the absence or presence of the same amount of CAR-1_184–268 for 2 h, followed by five times of PBS wash, and captured proteins were finally analyzed as described above.
To investigate whether C. elegans PATR-1 peptide will affect the CGH-1 binding to GST-tagged EDC-3_230–566 protein, approximate 100 μg GST-tagged EDC-3_230–566 was incubated with GST resin, followed by three times of wash in PBS. The resin was then incubated with 50 μg CGH-1_248–420 without PATR-1 peptide (0 μM) or with varied concentration of PATR-1 peptide (12.5, 25, or 50 μM) for 2 h, and was washed five times in PBS. The captured proteins in resin were finally heated and analyzed using 12% SDS-PAGE.

Molecule | Kd (CGH-1_248-420^WT) [nM] | − TΔS (CGH-1_248-420^WT; ITC, CGH-1_248–420 WT) [kcal/mol] | binding affinity of EDC-3 FDF-FEK motif relative to corresponding region of CAR-1 (by KD) (CGH-1_248-420^WT; ITC, CGH-1_248–420, 0.34 μM (this work) vs 43 μM (ref 17)) [times] | binding affinity relative to CAR-1_184–268 (by KD) (CGH-1_248-420^WT; ITC, CGH-1_248–420 WT, 0.34 μM vs 3.03 μM) | − TΔS (CGH-1_248-420^Q266A) [kcal/mol] | − TΔS (CGH-1_248-420^H269A) [kcal/mol] | − TΔS (CGH-1_248-420^F261A) [kcal/mol] | − TΔS (CGH-1_248-420^K277A; pH 7.5, 150 mM NaCl, CGH-1 K277A) [kcal/mol] | KD(mut) / KD(wt) (CGH-1_248-420^K277A; CGH-1 K277A vs WT) | − TΔS (CGH-1_248-420^R393A; pH 7.5, 150 mM NaCl, CGH-1 R393A) [kcal/mol] | KD(mut) / KD(wt) (CGH-1_248-420^R393A; CGH-1 R393A vs WT) | KD(mut) / KD(wt) (CGH-1_248-420^K277E; CGH-1 K277E vs WT) | − TΔS (CGH-1_248-420^K277E; pH 7.5, 150 mM NaCl, CGH-1 K277E) [kcal/mol] | KD(mut) / KD(wt) (CGH-1_248-420^E396A; CGH-1 E396A vs WT) | − TΔS (CGH-1_248-420^E396A; pH 7.5, 150 mM NaCl, CGH-1 E396A) [kcal/mol] | KD(mut) / KD(wt) (CGH-1_248-420^4A; 20 °C) | binding affinity compared to wildtype (in words) (CGH-1_248-420^4A) | binding affinity compared to wildtype (in words) (CGH-1_248-420^4A; listed as EDC-3 peptide) | weakening of binding affinity, factor vs WT (CGH-1_248–420 mutants) | effect on binding of CGH-1_248–420 to EDC-3_230–566 [1]
LADPIDFDLDSDFDFAENLKLFEKDENDDQYYETVEK [EDC-3_235–271] | 340 ± 20 | 8.94 | > 126 | approximately ninefold stronger | 4.34 | 4.97 | 6.17 | 7.74 | ~ 8.1 | 9.68 | ~ 6.1 | ~ 17.5 | 4.48 | ~ 2.5 | 7.92 | ~ 25.7 | dramatically impaired the binding affinity | dramatically disrupted the interaction | 3.4–7.5 | –
B1 | – | 19.6 | – | – | – | – | – | – | – | – | – | – | – | – | – | – | – | – | – | little or no effect
